Values quoted from earlier work in patent US20100160456A1 (priority 2007, published 2010).

What was measured:
[1] = incidence grade
[2] = after being injected with Propofol
[3] = known emulsion

In the case of CCOC(=O)c1cncn1[C@H](C)c1ccccc1 [ETOM, Etomidate], the Delirium [1] is given as “+”, the Excitation [1] is given as “++” and the Injection-related pain [1] is given as “+”. For the same molecule, the Latency [1] was “+” and the “Nausea & vomiting” value [1] was “+”.

For CC(=O)NS(=O)(=O)c1ccc(N)cc1 [KET, Cetamide], the Delirium [1] is listed as “+++”, the Excitation [1] is listed as “+++” and the Latency [1] is listed as “+”. The “Nausea & vomiting” value [1] was “+”.

In the case of C=CCC1(C(C)C#CCC)C(=O)N=C(O)N(C)C1=O (stereo not shown) [MTOX, Methohexital], the Awakening [1] is listed as “+”, the Excitation [1] is listed as “+” and the Injection-related pain [1] is listed as “+”. The Latency [1] was “++”.

For CCCOC(=O)Cc1ccc(OCC(=O)N(CC)CC)c(OC)c1 [PRPN, Propanidine], the Excitation [1] is listed as “+”, the Latency [1] is listed as “+” and the “Nausea & vomiting” value [1] is listed as “++”.

For CC(C)c1cccc(C(C)C)c1O [Propofol, 2,6-diisopropylphenol], the Awakening [1] is listed as “+”, the Injection-related pain [1] is listed as “+++” and the Latency [1] is listed as “++”. The “patients with a rejection to the acute pain after injection” value [2] was 80% and the “shelf-life of the product once the ampoule is opened” value [3] was “approximately 8 hours”.

For CCCC(C)C1(CC)C(=O)NC(=S)NC1=O (stereo not shown) [TIOP, Thiopental], the Awakening [1] is listed as “+”, the Injection-related pain [1] is listed as “+” and the Latency [1] is listed as “++”.

In the case of Althesin [ALTS], the Awakening [1] is listed as “+”, the Excitation [1] is listed as “+” and the Latency [1] is listed as “+”. The “Nausea & vomiting” value [1] was “+”.
